In US8623326B2 (University of Western Ontario, priority 2008, dated 2014):
Where a SMILES comes first, the peptide text is derived from it. [ ]: non-standard residue; d: D form. The star is where a group is joined. Dap = NC[C@H](N)C(=O)O; X1 = O=C(CCCCCF)*

Molecular target: T1, GHSR (Homo sapiens, UniProt Q92847)
T1 construct: expressed in transfected cells; host or cells: CHO-K1
Test: Radioligand binding assay (125I-ghrelin displacement)
Settings: 125I-ghrelin (human) radioligand; for IC50: read-out: IC50 (nM), binding affinity of fluorine bearing ghrelin analogues, human recombinant CHO-K1 cells as receptor source, 18a-c semi-quantitative from % inhibition at 10^-5 to 10^-8 M, duplicated
Experimental: Radioligand Binding Assay.
IC50 values were determined by a non-linear, least squares regression analysis using MathIQ™ (ID Business Solutions Ltd., UK).

T1 sequence (Q92847 whole entry): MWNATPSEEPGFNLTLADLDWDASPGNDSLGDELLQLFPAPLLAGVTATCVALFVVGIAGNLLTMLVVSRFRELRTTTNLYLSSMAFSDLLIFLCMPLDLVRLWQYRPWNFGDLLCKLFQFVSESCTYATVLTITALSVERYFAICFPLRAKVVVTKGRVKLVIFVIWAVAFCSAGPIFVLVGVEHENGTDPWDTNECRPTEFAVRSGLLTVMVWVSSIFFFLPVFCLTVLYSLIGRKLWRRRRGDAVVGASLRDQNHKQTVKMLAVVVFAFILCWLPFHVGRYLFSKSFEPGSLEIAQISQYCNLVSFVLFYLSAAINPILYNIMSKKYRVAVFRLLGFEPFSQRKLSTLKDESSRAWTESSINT

Row | SMILES | inhibition at 2 µM (at 2000 nM) | IC50
1 | CC(C)C[C@H](NC(=O)[C@H](Cc1ccccc1)NC(=O)[C@H](CNC(=O)CCCCCF)NC(=O)[C@H](CO)NC(=O)CN)C(N)=O [Cmpd 17, Ghrelin(1-5)-6C—F] (H-GS[Dap](X1)FL-NH2) | ~20% | 
2 | CC(C)C[C@H](NC(=O)[C@H](Cc1ccccc1)NC(=O)[C@H](CNC(=O)CCCCCF)NC(=O)[C@H](CO)NC(=O)CN)C(=O)N[C@@H](CO)C(=O)N1CCC[C@H]1C(=O)N[C@@H](CCC(=O)O)C(=O)N[C@@H](Cc1c[nH]cn1)C(=O)N[C@@H](CCC(N)=O)C(=O)N[C@@H](CCCNC(=N)N)C(=O)N[C@H](C(=O)N[C@@H](CCC(N)=O)C(=O)N[C@@H](CCC(N)=O)C(N)=O)C(C)C [Cmpd 18a, Ghrelin(1-14)-6C—F] |  | 147 nM
3 | CC(C)C[C@H](NC(=O)[C@H](Cc1ccccc1)NC(=O)[C@H](CNC(=O)CCCCCCCCF)NC(=O)[C@H](CO)NC(=O)CN)C(=O)N[C@@H](CO)C(=O)N1CCC[C@H]1C(=O)N[C@@H](CCC(=O)O)C(=O)N[C@@H](Cc1c[nH]cn1)C(=O)N[C@@H](CCC(N)=O)C(=O)N[C@@H](CCCNC(=N)N)C(=O)N[C@H](C(=O)N[C@@H](CCC(N)=O)C(=O)N[C@@H](CCC(N)=O)C(N)=O)C(C)C [Cmpd 18b, Ghrelin(1-14)-9C—F] |  | 39.6 nM
4 | CC(C)C[C@H](NC(=O)[C@H](Cc1ccccc1)NC(=O)[C@H](CNC(=O)CCCCCCCCCCCF)NC(=O)[C@H](CO)NC(=O)CN)C(=O)N[C@@H](CO)C(=O)N1CCC[C@H]1C(=O)N[C@@H](CCC(=O)O)C(=O)N[C@@H](Cc1c[nH]cn1)C(=O)N[C@@H](CCC(N)=O)C(=O)N[C@@H](CCCNC(=N)N)C(=O)N[C@H](C(=O)N[C@@H](CCC(N)=O)C(=O)N[C@@H](CCC(N)=O)C(N)=O)C(C)C [Cmpd 18c, Ghrelin(1-14)-12C—F] |  | 27.9 nM
